This note sets out measurements from ChEMBL document CHEMBL1150566, “Pitipeptolides A and B, new cyclodepsipeptides from the marine cyanobacterium Lyngbya majuscula” (J Nat Prod, 2001).

The subject of one experiment is LoVo. The experiment is described as follows: Cytotoxicity against human LoVo cells. Type of experiment: functional, cell-based.
For experiment [1], the system named is Mycobacterium tuberculosis. The experiment is described as follows: Antimycobacterial activity against Mycobacterium tuberculosis ATCC 25177 at 25 ug/disk by disk diffusion susceptibility assay. Type of experiment: functional. The following applies: read-out: DIZ.
For experiment [2], the system named is Mycobacterium tuberculosis. The experiment in a line: Antimycobacterial activity against Mycobacterium tuberculosis ATCC 25177 at 100 ug/disk by disk diffusion susceptibility assay. Type of experiment: functional. To be noted: read-out: DIZ. Background: A growth-free zone around the sample is the usual read-out of agar diffusion tests.
Experiment [3] is described as follows: Inhibition of elastase.
The target in a further experiment is T1, Papain (Carica papaya) (UniProt P00784).
T1 sequence (whole entry): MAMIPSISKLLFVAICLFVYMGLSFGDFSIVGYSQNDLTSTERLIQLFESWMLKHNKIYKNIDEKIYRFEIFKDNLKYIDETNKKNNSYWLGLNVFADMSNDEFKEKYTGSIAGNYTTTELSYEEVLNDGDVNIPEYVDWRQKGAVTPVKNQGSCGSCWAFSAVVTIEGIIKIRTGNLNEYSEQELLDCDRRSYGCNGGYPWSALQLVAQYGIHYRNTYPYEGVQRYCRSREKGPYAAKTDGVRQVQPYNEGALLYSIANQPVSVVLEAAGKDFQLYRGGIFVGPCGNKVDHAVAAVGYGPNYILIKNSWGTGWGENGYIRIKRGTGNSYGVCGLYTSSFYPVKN
The experiment in a line: Inhibition of papaya papain.

Experiment [4] addresses Prothrombin (Homo sapiens) (UniProt P00734). The experiment in a line: Inhibition of thrombin.
Experiment [5] is described as follows: Inhibition of trypsin.
In experiment [6] the target is Plasminogen (Homo sapiens) (UniProt P00747). The experiment in a line: Inhibition of plasmin.
A short description of experiment [7]: Inhibition of chymotrypsin.
Experiment [8] in a line: Stimulation of elastase activity at 50 ug/ml relative to control.
Experiment [9] relates to Mycobacterium tuberculosis. The experiment is described as follows: Antimycobacterial activity against Mycobacterium tuberculosis ATCC 35818 at 25 ug/disk by disk diffusion susceptibility assay. The following applies: read-out: DIZ. Type of experiment: functional.
Experiment [10] has as its system Mycobacterium tuberculosis. The experiment is described as follows: Antimycobacterial activity against Mycobacterium tuberculosis ATCC 35818 at 100 ug/disk by disk diffusion susceptibility assay. Type of experiment: functional. To be noted: read-out: DIZ.
Experiment [11] has as its system Mycobacterium tuberculosis. The experiment is described as follows: Antimycobacterial activity against Mycobacterium tuberculosis ATCC 25177 at 5 ug/disk by disk diffusion susceptibility assay. Type of experiment: functional. The following applies: read-out: DIZ.
For experiment [12], the system named is Mycobacterium tuberculosis. The experiment in a line: Antimycobacterial activity against Mycobacterium tuberculosis ATCC 25177 at 1 ug/disk by disk diffusion susceptibility assay. Type of experiment: functional. The following applies: read-out: DIZ.
Experiment [13] concerns Mycobacterium tuberculosis. The experiment is described as follows: Antimycobacterial activity against Mycobacterium tuberculosis ATCC 35818 at 5 ug/disk by disk diffusion susceptibility assay. Type of experiment: functional. The following applies: read-out: DIZ.
Experiment [14] has as its system Mycobacterium tuberculosis. The experiment is described as follows: Antimycobacterial activity against Mycobacterium tuberculosis ATCC 35818 at 1 ug/disk by disk diffusion susceptibility assay. Type of experiment: functional. To be noted: read-out: DIZ.

≈ marks a conversion by molar mass, not a printed value. Calls of active or inactive are those of the source. The calls are words filed in the database; no cut-off is given here. Numbered stars: 1 amine (or outer) side, 2 acyl side, 3 side chain; on linkers, the order of the positions; unused ones are H or OH. Bridge positions count the residues as written; N and C are the ends. Square brackets hold non-standard residues; d marks the D form. Peptide text beside a SMILES is read from it. X1 = C=CCCC[C@H](O[*:2])C(C)(C)C(=O)[*:1]; X2 = C#CCCC[C@H](O[*:2])C(C)(C)C(=O)[*:1]; Hmpa(2S,3S) = CC[C@H](C)[C@H](O)C(=O)O; NMeF = CN[C@@H](Cc1ccccc1)C(=O)O

Chain of Plasminogen (Homo sapiens) (P00747 97-580 limits assumed): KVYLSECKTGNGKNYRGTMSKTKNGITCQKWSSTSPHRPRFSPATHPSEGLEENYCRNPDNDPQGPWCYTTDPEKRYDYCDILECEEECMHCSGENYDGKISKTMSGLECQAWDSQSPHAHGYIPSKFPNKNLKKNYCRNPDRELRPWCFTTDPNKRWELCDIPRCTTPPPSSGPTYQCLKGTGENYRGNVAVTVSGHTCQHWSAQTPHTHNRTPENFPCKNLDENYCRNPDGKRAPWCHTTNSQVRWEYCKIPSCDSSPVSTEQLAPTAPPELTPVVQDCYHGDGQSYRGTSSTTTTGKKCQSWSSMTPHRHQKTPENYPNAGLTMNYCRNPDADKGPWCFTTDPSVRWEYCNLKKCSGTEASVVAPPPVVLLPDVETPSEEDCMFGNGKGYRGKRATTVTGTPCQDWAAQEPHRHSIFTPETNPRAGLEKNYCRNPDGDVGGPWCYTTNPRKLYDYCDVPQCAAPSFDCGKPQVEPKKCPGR
Chain of Plasminogen (Homo sapiens) (P00747 581-810 limits assumed): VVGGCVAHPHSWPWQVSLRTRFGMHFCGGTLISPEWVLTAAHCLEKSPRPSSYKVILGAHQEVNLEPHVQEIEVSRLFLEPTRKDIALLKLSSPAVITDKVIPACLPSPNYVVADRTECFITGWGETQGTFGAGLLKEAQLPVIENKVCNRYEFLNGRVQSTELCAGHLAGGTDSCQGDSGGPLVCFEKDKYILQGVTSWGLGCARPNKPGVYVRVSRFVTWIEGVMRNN

One may read the IC50 as the concentration needed to halve the response being measured. Regarding `C#CCCC[C@@H]1OC(=O)CNC(=O)[C@H]([C@@H](C)CC)NC(=O)[C@@H]2CCCN2C(=O)[C@H]([C@@H](C)CC)OC(=O)[C@H](Cc2ccccc2)N(C)C(=O)[C@H](C(C)C)NC(=O)C1(C)C` [PITIPEPTOLIDE A] (V[NMeF][Hmpa(2S,3S)]PIG; linker N-C via X2), the IC50 in the experiment on LoVo came to 2.25 µg/mL (≈ 2.78 µM). The figures for the zone of inhibition at 25 µg/disc in experiment [1] and in [9] were 10 mm and 9 mm, respectively. Further, the results for the zone of inhibition at 100 µg/disc in experiment [2] and in [10] were 25 mm and 15 mm, respectively. Moreover, the outcome (in experiment [3]; at Papain (Carica papaya); in experiment [4]; in experiment [5]; in [6]; in experiment [7]) was inactive. The fold change (FC) in experiment [8] amounted to 2.76.
In turn, `C=CCCC[C@@H]1OC(=O)CNC(=O)[C@H]([C@@H](C)CC)NC(=O)[C@@H]2CCCN2C(=O)[C@H]([C@@H](C)CC)OC(=O)[C@H](Cc2ccccc2)N(C)C(=O)[C@H](C(C)C)NC(=O)C1(C)C` [PITIPEPTOLIDE B] (V[NMeF][Hmpa(2S,3S)]PIG; linker N-C via X1) gave an IC50 in the experiment with LoVo of 1.95 µg/mL (≈ 2.41 µM). The zone of inhibition at 25 µg/disc in [1] came out at 15 mm; in experiment [9], 10 mm. Also, the zone of inhibition at 100 µg/disc in [2] is 30 mm; in experiment [10] it was 15 mm. Moreover, the outcome (in [3]; at Papain (Carica papaya); in [4]; in experiment [5]; in [6]; in [7]) was inactive. The fold change (FC) in experiment [8] was found to be 2.55.
For `CN[C@@H]1[C@H](O[C@H]2[C@H](O[C@H]3[C@H](O)[C@@H](O)[C@H](N=C(N)N)[C@@H](O)[C@@H]3N=C(N)N)O[C@@H](C)[C@]2(O)C=O)O[C@@H](CO)[C@H](O)[C@H]1O` [STREPTOMYCIN], the values for the zone of inhibition at 25 µg/disc in experiment [1] and in experiment [9] were 50 mm and 55 mm, respectively. Besides, the zone of inhibition at 5 µg/disc in experiment [11] amounted to 15 mm; in experiment [13] it was 33 mm. For the same compound, the values for the zone of inhibition at 1 µg/disc in experiment [12] and in [14] were 0 mm and 10 mm, respectively.
